In patent USRE30241E, “Esters of 3-(hydroxy or hydroxymethyl)-4-hydroxyphenyl aminomethyl ketones” (Sterling Drug Inc., priority 1970, dated 1980):
Counter-ions that a name gives are not always drawn. Like-named read-outs stand apart in the source and are kept apart here.

Test system: carbachol- or histamine-induced bronchoconstriction
Test: Bronchodilator Test Method I, anesthetized dog, intravenous activity
Assay type: in vivo
Settings: Canis lupus familiaris, read-out: Bronchodilatation; for inhibition in vivo at 0.014 mg/kg: 14 mcg/kg i.v.; for inhibition in vivo at 0.056 mg/kg: 56 mcg/kg i.v.; for inhibition in vivo at 0.02 mg/kg: 20 mcg/kg i.v.; for inhibition in vivo at 0.1 mg/kg: 100 mcg/kg i.v.; for inhibition in vivo at 0.005 mg/kg: 5 mcg/kg i.v.; for inhibition in vivo at 0.152 mg/kg: 152 mcg/kg i.v.; for inhibition in vivo at 0.304 mg/kg: 304 mcg/kg i.v.; for inhibition in vivo at 0.095 mg/kg: 95 mcg/kg i.v.; for inhibition in vivo at 0.19 mg/kg: 190 mcg/kg i.v.; for inhibition in vivo at 0.38 mg/kg: 380 mcg/kg i.v.; for inhibition in vivo at 0.075 mg/kg: 75 mcg/kg i.v.; for inhibition in vivo at […]: 150 mcg/kg i.v.; for inhibition in vivo at 0.3 mg/kg: 300 mcg/kg i.v.; for inhibition in vivo at 0.294 mg/kg: 294 mcg/kg i.v.; for inhibition in vivo at 1.176 mg/kg: 1176 mcg/kg i.v.; for inhibition in vivo at 0.147 mg/kg: 147 mcg/kg i.v.
Protocol: Bronchodilator activity was tested in anesthetized dogs (Test Method I) and in vitro on the perfused guinea pig lung (Test Method II), using the following pharmacological test procedures
Male and female dogs weighing 9-18 kg. each were anesthetized with pentobarbital sodium (30 mg./kg. i.v.). Each animal, with thorax opened at the midsternum, was maintained under artificial ventilation using a constant volume pump (250 ml./stroke; 10 to 12 strokes per minute) attached to the tracheal cannula. The flow of air was controlled by a glass or plastic valve which closed and opened respectively on inflow and outflow of the air to and from the tracheal cannula. Bronchoconstriction and/or bronchodilatation were measured from changes in the basal airway pressure reflected by a transducer attached to the sidearm of the cannula relayed to a polygraph.
Control bronchoconstrictions were induced by intravenous injections of carbachol (choline chloride carbamate) in doses ranging from 4 to 6 micrograms per kilogram or histamine diphosphate in doses ranging from 35 to 45 micrograms per kilogram.
Solutions of the test compounds were prepared in distilled water or in saline (for infusion). […] These solutions were then tested for bronchodilator activity in three ways, viz. (1) by mixing a graded dose of test compound with the constant does of carbachol or histamine in a syringe and injecting the mixture into the femoral vein of the dog, (2) by producing the bronchoconstriction first and injecting the test compound at the time of maximum constriction, and (3) by injecting the test compound first followed by carbachol or histamine in 1-10 minutes. Injections were repeated at 20-30 minutes. Bronchodilator values were obtained by measuring the areas under the response polygraph tracings (the first 5 munite period) of carbachol or histamine controls and of the experimentals using a planimeter. Decrease in the area thus measured was expressed as a percent bronchodilatation in reference to the area of control carbachol or histamine constriction. The mean bronchodilatations (the reductions in constrictions) were plotted against the doses administered and the mean effective dose (ED50) was estimated in micrograms/kilogram from the does-response curves. Blood pressure recording was taken from the femoral artery using an arterial transducer relayed to a polygraph.

COc1ccc(CC(=O)Oc2ccc(C(O)CNC(C)(C)C)cc2OC(=O)Cc2ccc(OC)cc2)cc1 (stereo not drawn) [Example 118, 3,4-bis(p-methoxyphenylacetoxy)-alpha-(tert-butylaminomethyl)benzyl alcohol hydrochloride]
inhibition in vivo at 0.014 mg/kg (5 min, 5 min): 68%
inhibition in vivo at 0.056 mg/kg (5 min, 5 min): 100%
inhibition in vivo at 0.014 mg/kg (0.5 h, 30 min): 61%
inhibition in vivo at 0.056 mg/kg (0.5 h, 30 min): 60%
inhibition in vivo at 0.014 mg/kg (1 h, 60 min): 35%
inhibition in vivo at 0.056 mg/kg (1 h, 60 min): 45%
inhibition in vivo at 0.014 mg/kg (2 h, 120 min): 7%
inhibition in vivo at 0.056 mg/kg (2 h, 120 min): 12%

CC(C)CC(=O)OCc1cc(C(O)CNC(C)(C)C)ccc1OC(=O)CC(C)C (stereo not drawn) [Example 136, 3-(isovaleryloxymethyl)-4-(isovaleryloxy)-alpha-(tert-butylaminomethyl)benzyl alcohol methanesulfonate]
inhibition in vivo at 0.02 mg/kg (5 min, 5 min): 36%
inhibition in vivo at 0.1 mg/kg (5 min, 5 min): 82%
inhibition in vivo at 0.02 mg/kg (0.5 h, 30 min): 53%
inhibition in vivo at 0.1 mg/kg (0.5 h, 30 min): 80%
inhibition in vivo at 0.005 mg/kg (1 h, 60 min): 47%
inhibition in vivo at 0.02 mg/kg (1 h, 60 min): 57%
inhibition in vivo at 0.1 mg/kg (1 h, 60 min): 70%
inhibition in vivo at 0.02 mg/kg (2 h, 120 min): 40%
inhibition in vivo at 0.1 mg/kg (2 h, 120 min): 60%
inhibition in vivo at 0.005 mg/kg (3 h, 180 min): 53%
inhibition in vivo at 0.02 mg/kg (3 h, 180 min): 12%
inhibition in vivo at 0.1 mg/kg (3 h, 180 min): 42%
inhibition in vivo at 0.005 mg/kg (4 h, 240 min): 46%
inhibition in vivo at 0.02 mg/kg (4 h, 240 min): 7%
inhibition in vivo at 0.005 mg/kg (5 h, 300 min): 46%
inhibition in vivo at 0.02 mg/kg (5 h, 300 min): 12%
inhibition in vivo at 0.1 mg/kg (5 h, 300 min): 32%

CCC(NC(C)C)C(O)c1ccc(OC(=O)c2ccc(C)cc2)c(OC(=O)c2ccc(C)cc2)c1 (stereo not drawn) [Example 132, 3,4-bis(p-toluyloxy)-alpha-[1-(isopropylamino)propyl]benzyl alcohol hydrochloride]
inhibition in vivo at 0.152 mg/kg (5 min, 5 min): 67%
inhibition in vivo at 0.304 mg/kg (5 min, 5 min): 100%
inhibition in vivo at 0.152 mg/kg (0.5 h, 30 min): 75%
inhibition in vivo at 0.304 mg/kg (0.5 h, 30 min): 67%
inhibition in vivo at 0.152 mg/kg (1 h, 60 min): 71%
inhibition in vivo at 0.152 mg/kg (2 h, 120 min): 52%
inhibition in vivo at 0.152 mg/kg (3 h, 180 min): 43%
inhibition in vivo at 0.152 mg/kg (4 h, 240 min): 0%
inhibition in vivo at 0.152 mg/kg (5 h, 300 min): 0%
inhibition in vivo at 0.304 mg/kg (5 h, 300 min): 0%

Cc1ccccc1C(=O)Oc1ccc(C(O)CNC(C)(C)C)cc1OC(=O)c1ccccc1C (stereo not drawn) [Example 111, 3,4-bis(o-toluyloxy)-alpha-(tert-butylaminomethyl)benzyl alcohol methanesulfonate]
inhibition in vivo at 0.0095 mg/kg (1 min, 9.5 mcg/kg i.v., 1-2 min): 0%
inhibition in vivo at 0.095 mg/kg (1 min, 1-2 min): 34%
inhibition in vivo at 0.19 mg/kg (1 min, 1-2 min): 27%
inhibition in vivo at 0.38 mg/kg (1 min, 1-2 min): 33%
inhibition in vivo at 0.095 mg/kg (0.5 h, 30 min): 36%
inhibition in vivo at 0.38 mg/kg (0.5 h, 30 min): 53%
inhibition in vivo at 0.19 mg/kg (1 h, 60 min): 18%
inhibition in vivo at 0.0475 mg/kg (2 h, 47.5 mcg/kg i.v., 120 min): 0%
inhibition in vivo at 0.095 mg/kg (2 h, 120 min): 32%
inhibition in vivo at 0.19 mg/kg (2 h, 120 min): 31%
inhibition in vivo at 0.38 mg/kg (2 h, 120 min): 55%
inhibition in vivo at 0.095 mg/kg (3 h, 180 min): 48%
inhibition in vivo at 0.19 mg/kg (3 h, 180 min): 35%
inhibition in vivo at 0.38 mg/kg (3 h, 180 min): 38%
inhibition in vivo at 0.095 mg/kg (4 h, 240 min): 41%
inhibition in vivo at 0.19 mg/kg (4 h, 240 min): 41%
inhibition in vivo at 0.095 mg/kg (5 h, 300 min): 50%
inhibition in vivo at 0.19 mg/kg (5 h, 300 min): 25%

CC(=O)OC(CNC(C)(C)C)c1ccc(OC(=O)c2ccc(C)cc2)c(OC(=O)c2ccc(C)cc2)c1 (stereo not drawn) [Example 134, 3,4-bis(p-toluyloxy)-alpha-(tert-butylaminomethyl)benzyl acetate]
inhibition in vivo at 0.075 mg/kg (5 min, 5 min): 25%
inhibition in vivo at […] (5 min, 5 min): 54%
inhibition in vivo at 0.3 mg/kg (5 min, 5 min): 47%
inhibition in vivo at 0.075 mg/kg (0.5 h, 30 min): 21%
inhibition in vivo at […] (0.5 h, 30 min): 58%
inhibition in vivo at 0.075 mg/kg (1 h, 60 min): 5%
inhibition in vivo at […] (1 h, 60 min): 52%
inhibition in vivo at 0.075 mg/kg (2 h, 120 min): 0%
inhibition in vivo at […] (2 h, 120 min): 35%
inhibition in vivo at 0.075 mg/kg (3 h, 180 min): 0%
inhibition in vivo at […] (3 h, 180 min): 20%
inhibition in vivo at […] (4 h, 240 min): 0%
inhibition in vivo at 0.3 mg/kg (4 h, 240 min): 36%

CNCC(O)c1ccc(OC(=O)c2ccc(C)cc2)c(OC(=O)c2ccc(C)cc2)c1 (stereo not drawn) [Example 126, 3,4-bis(p-toluyloxy)-alpha-(methylaminomethyl)benzyl alcohol methanesulfonate]
inhibition in vivo at 0.294 mg/kg (1 min, 1-2 min): 13%
inhibition in vivo at 1.176 mg/kg (1 min, 1-2 min): 100%
inhibition in vivo at 0.147 mg/kg (0.5 h, 30 min): 27%
inhibition in vivo at 0.294 mg/kg (0.5 h, 30 min): 8%
inhibition in vivo at 1.176 mg/kg (0.5 h, 30 min): 47%
inhibition in vivo at 0.147 mg/kg (1 h, 60 min): 15%
inhibition in vivo at 0.294 mg/kg (1 h, 60 min): 17%
inhibition in vivo at 1.176 mg/kg (1 h, 60 min): 20%
